Measured values from publication PMC4792962, “A unified mechanism for proteolysis and autocatalytic activation in the 20S proteasome” (Nature Communications, 2016).
Positions count from the first letter of the chain named.

Assays:
[1] = biological target: T1, yeast 20S proteasome core particle (yCP), β5 active site (ChT-L activity) (Saccharomyces cerevisiae, UniProt P23724+P30656, P30656:D243N); assay: X-ray crystal structure; format: binding; conditions: crystal soak; covalent (morpholine ring with Thr1)
T1 construct: gene PRE2; native 20S core particle purified from yeast (α7β7β7α7, 28 subunits), untagged; β5 mature after autocatalytic propeptide removal; in 'pp trans' mutants the β5 propeptide is expressed separately; with Proteasome subunit beta type-1; Proteasome subunit beta type-2; Proteasome subunit beta type-3; Proteasome subunit beta type-4; Proteasome subunit beta type-7; Proteasome subunit alpha type-1; Proteasome subunit alpha type-2; Proteasome subunit alpha type-3; Proteasome subunit alpha type-4; Proteasome subunit alpha type-5; Proteasome subunit alpha type-6; Probable proteasome subunit alpha type-7
T1 sequence (P30656 76-287 D243N): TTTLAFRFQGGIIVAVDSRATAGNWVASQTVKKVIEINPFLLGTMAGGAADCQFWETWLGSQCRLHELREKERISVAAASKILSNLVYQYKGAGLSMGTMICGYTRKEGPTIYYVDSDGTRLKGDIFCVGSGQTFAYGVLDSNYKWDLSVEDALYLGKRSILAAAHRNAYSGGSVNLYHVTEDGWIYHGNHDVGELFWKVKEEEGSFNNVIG
T1 sequence (P23724 20-241): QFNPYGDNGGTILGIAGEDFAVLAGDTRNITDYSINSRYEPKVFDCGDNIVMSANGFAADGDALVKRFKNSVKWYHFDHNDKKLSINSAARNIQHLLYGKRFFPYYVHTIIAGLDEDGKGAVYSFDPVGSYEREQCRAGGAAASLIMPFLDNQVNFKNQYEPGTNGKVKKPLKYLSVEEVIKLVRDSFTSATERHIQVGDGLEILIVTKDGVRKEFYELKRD

[2] = biological target: T2, yeast 20S proteasome core particle (yCP), β5 active site (ChT-L activity) (Saccharomyces cerevisiae, UniProt P23724+P30656, P30656:K108A); assay: X-ray crystal structure; format: binding; conditions: propeptide expressed in trans, covalent
T2 construct: gene PRE2; native 20S core particle purified from yeast (α7β7β7α7, 28 subunits), untagged; β5 mature after autocatalytic propeptide removal; in 'pp trans' mutants the β5 propeptide is expressed separately; with Proteasome subunit beta type-1; Proteasome subunit beta type-2; Proteasome subunit beta type-3; Proteasome subunit beta type-4; Proteasome subunit beta type-7; Proteasome subunit alpha type-1; Proteasome subunit alpha type-2; Proteasome subunit alpha type-3; Proteasome subunit alpha type-4; Proteasome subunit alpha type-5; Proteasome subunit alpha type-6; Probable proteasome subunit alpha type-7
T2 sequence (P30656 76-287 K108A): T1 sequence (P30656 76-287 D243N) with K33A, N168D
T2 sequence (P23724 20-241): T1 sequence (P23724 20-241)

[3] = biological target: T3, yeast 20S proteasome core particle (yCP), β5 active site (ChT-L activity) (Saccharomyces cerevisiae, UniProt P23724+P30656); assay: fluorescence inhibition assay, Suc-LLVY-AMC; format: biochemical
T3 construct: gene PRE2; native 20S core particle purified from yeast (α7β7β7α7, 28 subunits), untagged; β5 mature after autocatalytic propeptide removal; in 'pp trans' mutants the β5 propeptide is expressed separately; with Proteasome subunit beta type-1; Proteasome subunit beta type-2; Proteasome subunit beta type-3; Proteasome subunit beta type-4; Proteasome subunit beta type-7; Proteasome subunit alpha type-1; Proteasome subunit alpha type-2; Proteasome subunit alpha type-3; Proteasome subunit alpha type-4; Proteasome subunit alpha type-5; Proteasome subunit alpha type-6; Probable proteasome subunit alpha type-7
T3 sequence (P30656 76-287): T1 sequence (P30656 76-287 D243N) with N168D
T3 sequence (P23724 20-241): T1 sequence (P23724 20-241)

[4] = biological target: T4, yeast 20S proteasome core particle (yCP), β5 active site (ChT-L activity) (Saccharomyces cerevisiae, UniProt P23724+P30656, P30656:T76S); assay: fluorescence inhibition assay, Suc-LLVY-AMC; format: biochemical
T4 construct: gene PRE2; native 20S core particle purified from yeast (α7β7β7α7, 28 subunits), untagged; β5 mature after autocatalytic propeptide removal; in 'pp trans' mutants the β5 propeptide is expressed separately; with Proteasome subunit beta type-1; Proteasome subunit beta type-2; Proteasome subunit beta type-3; Proteasome subunit beta type-4; Proteasome subunit beta type-7; Proteasome subunit alpha type-1; Proteasome subunit alpha type-2; Proteasome subunit alpha type-3; Proteasome subunit alpha type-4; Proteasome subunit alpha type-5; Proteasome subunit alpha type-6; Probable proteasome subunit alpha type-7
T4 sequence (P30656 76-287 T76S): T1 sequence (P30656 76-287 D243N) with T1S, N168D
T4 sequence (P23724 20-241): T1 sequence (P23724 20-241)

| Structure (SMILES) | X-ray crystal structure [1] | X-ray crystal structure [2] | IC50 [3] [nM] | IC50 [4] [nM] |
| --- | --- | --- | --- | --- |
| CC(C)C[C@H](NC(=O)[C@H](CCc1ccccc1)NC(=O)CN1CCOCC1)C(=O)N[C@@H](Cc1ccccc1)C(=O)N[C@@H](CC(C)C)C(=O)[C@@]1(C)CO1 [carfilzomib] | Soaking the β5-D166N crystals with carfilzomib and MG132 resulted in covalent modification of Thr1 | crystal structure of the β5-K33A pp trans mutant in complex with carfilzomib | – | – |
| CC(C)C[C@H](NC(=O)[C@H](Cc1ccccc1)NC(=O)c1cnccn1)B(O)O [bortezomib] | – | – | 174 ± 29 | 649 ± 176 |
